Test results published in patent US9181264B2, “Fused heteroaryls and their uses” (Hutchison MediPharma Limited, priority 2011, dated 2015).

Assays:
mTOR kinase = target: T1, mTOR kinase (Homo sapiens, UniProt P42345); assay: mTOR LanthaScreen TR-FRET assay; type: biochemical; conditions: 10 μmol/L ATP, GFP-4EBP1 substrate; read-out: IC50, inhibition of mTOR
T1 construct: purchased Invitrogen PV4753
Experimental: Compounds are tested using LanthaScreen TR-FRET Assay. The kinase reaction is completed in 384-well black plate (Corning, Cat. 3676). The final conditions for kinase assay are: 10 μmol/L of ATP, 0.2 ng/μL of mTOR kinase, 0.4 μmol/L of GFP-4EBP1 substrate and assay buffer (50 mmol/L of HEPES, pH 7.5, 0.01% of Tween 20, 1 mmol/L of EGTA, 10 mmol/L of MnCl2, 2 mmol/L of DTT and 1% DMSO).
To each well, 2.5 μL of test compounds in 4% DMSO and 2.5 μL of 0.8 ng/μL mTOR kinase (Invitrogen, PV4753) diluted in assay buffer are added. The reaction is initiated by the addition of 5 μL mixture of 0.8 μmol/L GFP-4EBP1 Substrate (Invitorgen, PV4759) and 20 μmol/L ATP mixtures. The mixture is incubated at room temperature for 60 minutes. 10 μL of 20 mmol/L EDTA and 4 nmol/L Tb-anti-p4EBP1 [pThr46] antibody (Invitrogen, PV4755) diluted in TR-FRET dilution buffer are added and incubated for an additional 1 hour. The plate is then read in a BioTek Synergy2 Reader at excitation of 340 nm and emission of 490 nm and 528 nm.
The inhibition of test compound is calculated based on the ratio of 528 nm/490 nm. IC50 of test compound is obtained using XLfit 2.0 software.

PI3Kα kinase = target: T2, PI3Kα kinase (Homo sapiens, UniProt P42336); assay: PI3Ka Transcreener ADP assay (fluorescence polarization); type: biochemical; conditions: 10 μM ATP, 30 μmol/L lipid substrate; read-out: IC50, inhibition of PI3Kα kinase
T2 construct: purchased Invitrogen PV4788
T2 sequence (P42336 whole entry): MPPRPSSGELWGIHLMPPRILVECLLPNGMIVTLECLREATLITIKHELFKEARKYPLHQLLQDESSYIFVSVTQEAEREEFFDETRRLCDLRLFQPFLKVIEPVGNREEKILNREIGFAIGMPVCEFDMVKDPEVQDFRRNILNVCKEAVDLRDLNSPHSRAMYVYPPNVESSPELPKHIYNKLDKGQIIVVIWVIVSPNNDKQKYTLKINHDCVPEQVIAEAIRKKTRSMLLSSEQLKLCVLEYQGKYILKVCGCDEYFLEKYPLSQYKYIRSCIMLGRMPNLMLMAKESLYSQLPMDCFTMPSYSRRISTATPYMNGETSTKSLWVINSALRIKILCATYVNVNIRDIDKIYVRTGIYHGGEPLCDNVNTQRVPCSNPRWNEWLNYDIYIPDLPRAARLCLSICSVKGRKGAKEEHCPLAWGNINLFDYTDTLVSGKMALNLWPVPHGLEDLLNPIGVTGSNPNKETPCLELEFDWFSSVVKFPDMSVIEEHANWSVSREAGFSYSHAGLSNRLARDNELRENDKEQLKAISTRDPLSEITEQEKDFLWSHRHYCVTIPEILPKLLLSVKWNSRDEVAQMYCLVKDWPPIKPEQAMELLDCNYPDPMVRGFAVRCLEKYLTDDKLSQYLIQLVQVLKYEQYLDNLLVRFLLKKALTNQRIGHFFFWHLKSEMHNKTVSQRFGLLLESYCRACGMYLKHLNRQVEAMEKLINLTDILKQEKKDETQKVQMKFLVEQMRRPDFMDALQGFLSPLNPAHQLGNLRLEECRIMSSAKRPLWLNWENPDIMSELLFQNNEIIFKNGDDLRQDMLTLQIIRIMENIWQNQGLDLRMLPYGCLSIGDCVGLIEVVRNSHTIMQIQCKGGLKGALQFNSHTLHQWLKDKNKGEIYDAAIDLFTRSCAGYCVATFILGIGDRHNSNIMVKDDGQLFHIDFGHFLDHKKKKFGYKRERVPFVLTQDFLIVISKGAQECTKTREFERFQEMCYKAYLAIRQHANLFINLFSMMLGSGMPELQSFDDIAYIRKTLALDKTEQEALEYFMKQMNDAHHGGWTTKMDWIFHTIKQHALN
T2 sequence (P27986 whole entry partner): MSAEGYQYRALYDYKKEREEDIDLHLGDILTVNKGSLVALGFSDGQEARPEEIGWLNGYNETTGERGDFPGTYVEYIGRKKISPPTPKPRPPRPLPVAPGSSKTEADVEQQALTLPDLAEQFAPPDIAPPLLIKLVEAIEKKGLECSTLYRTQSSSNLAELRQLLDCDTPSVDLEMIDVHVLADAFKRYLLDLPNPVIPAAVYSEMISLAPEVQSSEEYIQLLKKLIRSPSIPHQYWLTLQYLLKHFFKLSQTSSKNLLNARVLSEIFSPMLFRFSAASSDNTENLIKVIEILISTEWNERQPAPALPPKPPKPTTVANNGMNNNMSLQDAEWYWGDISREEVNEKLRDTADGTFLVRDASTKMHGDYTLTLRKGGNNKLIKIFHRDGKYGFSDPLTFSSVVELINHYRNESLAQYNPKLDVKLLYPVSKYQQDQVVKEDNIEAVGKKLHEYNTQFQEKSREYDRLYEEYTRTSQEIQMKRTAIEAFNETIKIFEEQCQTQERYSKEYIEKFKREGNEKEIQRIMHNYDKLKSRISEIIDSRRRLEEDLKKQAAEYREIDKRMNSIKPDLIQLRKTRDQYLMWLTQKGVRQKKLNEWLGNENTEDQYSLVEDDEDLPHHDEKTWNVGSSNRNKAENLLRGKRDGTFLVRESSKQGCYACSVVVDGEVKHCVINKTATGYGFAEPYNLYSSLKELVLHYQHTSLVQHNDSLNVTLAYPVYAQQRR
Experimental: Fluorescence polarization was used in this assay. The final conditions for kinase assay are 10 μM of ATP, 0.2 ng/μL of PI3Kα kinase, 30 μmol/L of lipid substrate and assay buffer (50 mmol/L of HEPES (pH 7.5), 100 mmol/L of NaCl, 1 mmol/L of EGTA, 3 mmol/L of MgCl2, 1 mmol/L of DTT and 0.03% CHAPS and 2% DMSO).
5 μL of test compounds in 10% DMSO and 10 μL of 0.5 ng/μL PI3K kinase (Invitrogen, PV4788) in assay buffer are put into a 96-well plate (Greiner, Cat. 675076), and then the reaction is started by the addition of 10 μL of 75 μmol/L PIP2, (PS Lipid Substrate Invitrogen, PV5100), and 25 μmol/L ATP mixture. After the mixture is incubated for 60 minutes at room temperature, 25 μL of transcreener Kinase Kit reagent—ADP Detection Mix—(Bellbrook Labs) is added, and the reaction is continued for an additional 1.5 hours. At the end, the plate is read in a Tecan Infinite F500 at excitation of 610 nm and emission of 670 nm.
A standard curve for ADP is obtained in a parallel way by replacing compound and PI3Kα kinase with DMSO and assay buffer, respectively. Different concentration of ADP, 0-10 μM, and ATP, 10-0 μM (ATP+ADP equal to 10 μM) are applied instead of a fixed concentration of ATP in this standard curve assay. Other conditions are the same as described above. The standard curve is plotted using Origin 8.0 software. The inhibition of test compound on ADP production is calculated based on ADP concentration from standard curve. IC50 is obtained using XLfit 2.0 software.

T1 sequence (P42345 1360-2549 limits assumed): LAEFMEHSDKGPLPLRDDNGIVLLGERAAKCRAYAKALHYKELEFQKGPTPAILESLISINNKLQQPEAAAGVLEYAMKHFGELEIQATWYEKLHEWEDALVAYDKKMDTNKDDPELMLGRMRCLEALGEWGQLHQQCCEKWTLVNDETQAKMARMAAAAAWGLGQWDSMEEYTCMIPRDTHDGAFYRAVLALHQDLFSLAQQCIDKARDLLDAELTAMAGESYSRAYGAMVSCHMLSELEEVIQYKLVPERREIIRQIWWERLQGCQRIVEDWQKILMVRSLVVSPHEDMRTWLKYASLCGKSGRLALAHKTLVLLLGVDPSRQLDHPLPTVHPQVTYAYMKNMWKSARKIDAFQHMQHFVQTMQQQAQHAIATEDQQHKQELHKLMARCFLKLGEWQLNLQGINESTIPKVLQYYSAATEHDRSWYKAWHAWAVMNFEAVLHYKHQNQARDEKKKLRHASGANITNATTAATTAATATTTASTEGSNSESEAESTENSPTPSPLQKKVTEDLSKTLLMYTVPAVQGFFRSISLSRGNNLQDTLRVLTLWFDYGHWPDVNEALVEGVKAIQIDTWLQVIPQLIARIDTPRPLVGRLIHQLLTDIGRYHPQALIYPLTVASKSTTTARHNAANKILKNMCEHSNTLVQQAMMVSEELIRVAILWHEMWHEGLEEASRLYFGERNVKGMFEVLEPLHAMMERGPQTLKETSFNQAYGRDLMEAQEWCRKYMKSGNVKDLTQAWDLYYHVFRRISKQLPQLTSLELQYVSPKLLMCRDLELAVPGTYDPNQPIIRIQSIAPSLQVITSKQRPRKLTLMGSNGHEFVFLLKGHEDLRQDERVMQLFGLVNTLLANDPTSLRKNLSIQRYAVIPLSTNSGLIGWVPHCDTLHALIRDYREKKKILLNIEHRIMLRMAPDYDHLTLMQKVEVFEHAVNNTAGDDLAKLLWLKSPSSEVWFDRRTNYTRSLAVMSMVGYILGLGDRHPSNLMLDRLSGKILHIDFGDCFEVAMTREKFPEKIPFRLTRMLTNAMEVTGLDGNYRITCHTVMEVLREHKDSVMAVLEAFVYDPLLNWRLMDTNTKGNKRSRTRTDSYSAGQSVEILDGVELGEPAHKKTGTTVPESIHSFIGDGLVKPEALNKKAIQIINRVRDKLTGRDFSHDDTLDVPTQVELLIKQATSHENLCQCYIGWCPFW

`Cc1nc2cnc3ccc(-c4cnc(N)c(C(F)(F)F)c4)nc3c2n1C1CCN(CC2(C)COC2)CC1` [Compound 121] was tested, and the IC50 (mTOR kinase) was < 100 nM and the IC50 (PI3Kα kinase) was < 100 nM.

With `Nc1ncc(-c2ccc3ncc4ncn(C5CCOCC5)c4c3n2)cc1C(F)(F)F` [Compound 106] the IC50 (mTOR kinase) was < 100 nM and the IC50 (PI3Kα kinase) was < 100 nM.

In the case of `COc1ncc(-c2ccc3ncc4ncn(C)c4c3n2)cc1NS(=O)(=O)C(F)(F)F` [Compound 159], the IC50 (mTOR kinase) is reported as < 100 nM and the IC50 (PI3Kα kinase) is reported as < 100 nM.

With `CC1(CN2CCC(n3nnc4cnc5ccc(-c6cnc(N)c(C(F)(F)F)c6)nc5c43)CC2)COC1` [Compound 44] the IC50 (mTOR kinase) was < 100 nM and the IC50 (PI3Kα kinase) was < 100 nM.

In the case of `CN(C)C(=O)CN1CCC(n2cnc3cnc4ccc(-c5cnc(N)c(C(F)(F)F)c5)nc4c32)CC1` [Compound 98], the IC50 (mTOR kinase) is reported as < 100 nM and the IC50 (PI3Kα kinase) is reported as < 100 nM.

With `N#Cc1cccc(-c2nnc3cnc4ccc(-c5ccc6nc(N)sc6c5)cc4n23)c1` [Compound 63] the IC50 (mTOR kinase) was < 100 nM and the IC50 (PI3Kα kinase) was < 100 nM.

`Nc1ncc(-c2ccc3ncc4nnn(-c5ccc6[nH]ncc6c5)c4c3c2)cc1C(F)(F)F` [Compound 14] was tested, and the IC50 (mTOR kinase) was < 100 nM and the IC50 (PI3Kα kinase) was < 100 nM.

With `Cc1nc2cnc3ccc(-c4cnc(N)c(C(F)(F)F)c4)nc3c2n1C1CCN(CC(=O)N(C)C)CC1` [Compound 123] the IC50 (mTOR kinase) was < 100 nM and the IC50 (PI3Kα kinase) was < 100 nM.

For `CC(C)C(=O)N1CCC(n2nnc3cnc4ccc(-c5cnc(N)c(C(F)(F)F)c5)nc4c32)CC1` [Compound 30, 1-(4-(8-(6-amino-5-(trifluoromethyl)pyridin-3-yl)-1H-[1,2,3]triazolo[4,5-c][1,5]naphthyridin-1-yl)piperidin-1-yl)-2-methylpropan-1-one], the IC50 (mTOR kinase) was < 100 nM and the IC50 (PI3Kα kinase) was < 100 nM.

In the case of `CC(C)(C#N)c1ccc(-c2nnc3cnc4ccc(-c5ccc6nc(N)sc6c5)cc4n23)cn1` [Compound 56], the IC50 (mTOR kinase) is reported as < 100 nM and the IC50 (PI3Kα kinase) is reported as < 100 nM.

In the case of `COc1ncc(-c2ccc3ncc4nn(C)c(=O)n4c3c2)cc1NS(=O)(=O)c1ccc(F)cc1F` [Compound 148], the IC50 (mTOR kinase) is reported as < 100 nM and the IC50 (PI3Kα kinase) is reported as < 100 nM.

`Cc1cc(-c2ccc3ncc4nc(C)n(C5CCC(N6CCOCC6)CC5)c4c3n2)cnc1N` (centres unmarked) [Compound 136] was tested, and the IC50 (PI3Kα kinase) was < 100 nM.

In the case of `Cc1nc2cnc3ccc(-c4cnc(N)c(C(F)(F)F)c4)nc3c2n1C1CCN(CC(=O)N2CCCC2)CC1` [Compound 125], the IC50 (PI3Kα kinase) is reported as < 100 nM.

`COc1ncc(-c2ccc3ncc4nnc(C(=O)N5CCCC5)n4c3c2)cc1NS(=O)(=O)C1CC1` [Compound 167] was tested, and the IC50 (PI3Kα kinase) was < 100 nM.

In the case of `CC(C)(C#N)c1ccc(-n2cnc3nnc4ccc(-c5cnc(N)c(C(F)(F)F)c5)cc4c32)cc1` [Compound 183, 2-(4-(8-(6-amino-5-(trifluoromethyl)pyridin-3-yl)-1H-imidazo[4,5-c]cinnolin-1-yl)phenyl)-2-methylpropanenitrile], the IC50 (PI3Kα kinase) is reported as < 100 nM.

In the case of `COc1ncc(-c2ccc3ncc4nnc(-c5ccc(C(C)(C)C#N)cc5)n4c3c2)cc1N` [Compound 74], the IC50 (PI3Kα kinase) is reported as < 100 nM.

In the case of `C[C@@H](O)C(=O)N1CCC(n2nnc3cnc4ccc(-c5cnc(N)c(C(F)(F)F)c5)cc4c32)CC1` [Compound 24], the IC50 (PI3Kα kinase) is reported as < 100 nM.

In the case of `COc1ncc(-c2ccc3ncc4nnc(C)n4c3c2)cc1NS(=O)(=O)c1ccc(F)cc1` [Compound 182], the IC50 (PI3Kα kinase) is reported as < 100 nM.

In the case of `Nc1ncc(-c2ccc3ncc4ncn(CCN5CCCC5)c4c3n2)cc1C(F)(F)F` [Compound 111], the IC50 (PI3Kα kinase) is reported as < 100 nM.

In the case of `Cc1nc2cnc3ccc(-c4cnc5[nH]ncc5c4)nc3c2n1C1CCOCC1` [Compound 134], the IC50 (PI3Kα kinase) is reported as < 100 nM.

`C=CC(=O)N1CCC(n2nnc3cnc4ccc(-c5cnc(N)c(C(F)(F)F)c5)nc4c32)CC1` [Compound 28] was tested, and the IC50 (PI3Kα kinase) was < 100 nM.

In the case of `Cc1nc2nnc3ccc(-c4cnc(N)c(C(F)(F)F)c4)cc3c2n1-c1ccc(C(C)(C)C#N)cc1` [Compound 184], the IC50 (PI3Kα kinase) is reported as < 100 nM.

In the case of `Nc1ncc(-c2ccc3ncc4ncn(C5CCN(CC(=O)N6CCOCC6)CC5)c4c3n2)cc1C(F)(F)F` [Compound 97], the IC50 (PI3Kα kinase) is reported as < 100 nM.

For `C=CC(=O)N1CCC(n2c(C)nc3cnc4ccc(-c5cnc(N)c(C(F)(F)F)c5)nc4c32)CC1` [Compound 140], the IC50 (PI3Kα kinase) was < 100 nM.

For `C[C@H](O)C(=O)N1CCC(n2nnc3cnc4ccc(-c5cnc6[nH]ccc6c5)nc4c32)CC1` [Compound 8], the IC50 (PI3Kα kinase) was < 100 nM.

With `Nc1ncc(-c2ccc3ncc4nnn(C5CCN(CC6CC6)CC5)c4c3n2)cc1C(F)(F)F` [Compound 20] the IC50 (PI3Kα kinase) was < 100 nM.

`Cc1cc(-c2ccc3ncc4nnc(-c5ccc(C(C)(C)C#N)nc5)n4c3c2)cnc1N` [Compound 57] was tested, and the IC50 (PI3Kα kinase) was < 100 nM.

In the case of `COc1cc(-c2ccc3ncc4ncn(-c5ccc(C(C)(C)C#N)nc5)c4c3n2)cnc1OC` [Compound 92], the IC50 (PI3Kα kinase) is reported as < 100 nM.

With `CC(C)(C#N)c1ccc(-n2cnc3cnc4ccc(-c5cnc(N)nc5)nc4c32)cn1` [Compound 94] the IC50 (PI3Kα kinase) was < 100 nM.

With `COc1cc(-c2ccc3ncc4ncn(-c5ccc(C(C)(C)C#N)nc5)c4c3n2)cnc1N` [Compound 95] the IC50 (PI3Kα kinase) was < 100 nM.

In the case of `Nc1ncc(-c2ccc3ncc4nnn(C5CCN(C(=O)c6ccccc6)CC5)c4c3n2)cc1C(F)(F)F` [Compound 41], the IC50 (PI3Kα kinase) is reported as < 100 nM.

In the case of `COc1ncc(-c2ccc3ncc4nc(C)n(C5CCN(C(=O)C6CC6)CC5)c4c3n2)cc1C(F)(F)F` [Compound 143], the IC50 (PI3Kα kinase) is reported as < 100 nM.

In the case of `CC(=O)N1CCC(Cc2nnc3cnc4ccc(-c5cnc(N)c(C(F)(F)F)c5)cc4n23)CC1` [Compound 82], the IC50 (PI3Kα kinase) is reported as < 100 nM.

`CN1CCC(C(=O)N2CCC(n3nnc4cnc5ccc(-c6cnc(N)c(C(F)(F)F)c6)nc5c43)CC2)CC1` [Compound 36] was tested, and the IC50 (PI3Kα kinase) was < 100 nM.

In the case of `COc1ncc(-c2ccc3ncc4nnc(C(=O)N(C)C)n4c3c2)cc1NS(=O)(=O)C1CC1` [Compound 168], the IC50 (PI3Kα kinase) is reported as < 100 nM.

In the case of `Cc1nc2cnc3ccc(-c4cnc(N)c(C(F)(F)F)c4)nc3c2n1C1CCN(Cc2ccccn2)CC1` [Compound 128], the IC50 (PI3Kα kinase) is reported as < 100 nM.

For `Cc1nc2cnc3ccc(-c4cnc(N)c(C(F)(F)F)c4)nc3c2n1C1CCC(N2CCOCC2)CC1` (centres unmarked) [Compound 137], the IC50 (PI3Kα kinase) was < 100 nM.

With `COc1ncc(-c2ccc3ncc4nccn4c3c2)cc1NS(=O)(=O)C(F)(F)F` [Compound 176] the IC50 (PI3Kα kinase) was < 100 nM.

`Nc1ncc(-c2ccc3ncc4nnc(CN5CCCC5)n4c3c2)cc1C(F)(F)F` [Compound 87] was tested, and the IC50 (PI3Kα kinase) was < 100 nM.

With `COc1ncc(-c2ccc3ncc4nnc(C(=O)N(C)C)n4c3c2)cc1NS(=O)(=O)c1ccccc1` [Compound 169] the IC50 (PI3Kα kinase) was < 100 nM.

`Cc1ccc(-c2ccc3ncc4nnn(C5CCN(C(=O)[C@H](C)O)CC5)c4c3n2)cn1` [Compound 2] was tested, and the IC50 (PI3Kα kinase) was < 100 nM.

For `Cc1ccc(-c2nnc3cnc4ccc(-c5cnc(N)c(C(F)(F)F)c5)cc4n23)cn1` [Compound 65], the IC50 (PI3Kα kinase) was < 100 nM.

For `CC(C)(C#N)c1ccc(-n2nnc3cnc4ccc(-c5cnc(N)nc5)nc4c32)cc1` [Compound 18], the IC50 (PI3Kα kinase) was < 100 nM.

In the case of `COc1ncc(-c2ccc3ncc4nnc(C)n4c3c2)cc1NS(C)(=O)=O` [Compound 150], the IC50 (PI3Kα kinase) is reported as < 100 nM.

With `COc1ncc(-c2ccc3ncc4nnc(CN5CCOCC5)n4c3c2)cc1NS(C)(=O)=O` [Compound 172] the IC50 (PI3Kα kinase) was < 100 nM.

In the case of `CC(C)(C#N)c1ccc(-n2cnc3cnc4ccc(-c5cnc(N)c(C(F)(F)F)c5)nc4c32)cn1` [Compound 89], the IC50 (PI3Kα kinase) is reported as < 100 nM.

For `C[C@H](O)C(=O)N1CCC(n2nnc3cnc4ccc(-c5cnc(N)c(C(F)(F)F)c5)cc4c32)CC1` [Compound 23], the IC50 (PI3Kα kinase) was < 100 nM.

For `COc1ccc(-c2ccc3ncc4nnn(C5CCN(C(=O)[C@H](C)O)CC5)c4c3n2)cn1` [Compound 5], the IC50 (PI3Kα kinase) was < 100 nM.

In the case of `CCOc1cc(-c2ccc3ncc4ncn(-c5ccc(C(C)(C)C#N)nc5)c4c3n2)cnc1N` [Compound 108], the IC50 (PI3Kα kinase) is reported as < 100 nM.

With `Cc1nc2cnc3ccc(-c4cnc(N)c(C(F)(F)F)c4)nc3c2n1C1CCOCC1` [Compound 133] the IC50 (PI3Kα kinase) was < 100 nM.

For `COc1ncc(-c2ccc3ncc4nnc(C5CC5)n4c3c2)cc1NS(=O)(=O)c1ccc(F)cc1F` [Compound 162], the IC50 (PI3Kα kinase) was < 100 nM.
